Measured values as given in patent US9717718B2, “Anti-inflammatory compounds” (Phytoquest Limited, priority 2011, dated 2017).
“Also recorded” adds a separate entry of the source.

Legend:
[1] = target: T1, α-D-glucosidase (Yeast) (Saccharomyces cerevisiae, UniProt P53341); test: Glycosidase assay, α-D-glucosidase (Yeast); assay type: biochemical; details: 0.2 mM, negative value = stabilisation or promotion of enzyme activity
T1 construct: purchased Sigma
Description: (§1) All enzymes and para-nitrophenyl substrates were purchased from Sigma, with the exception of beta-mannosidase which came from Megazyme. Enzymes were assayed at 27° C. in 0.1 M citric acid/0.2M disodium hydrogen phosphate buffers at the optimum pH for the enzyme. The incubation mixture consisted of 10 μl enzyme solution, 10 μl of 1 mg/ml aqueous solution of sample and 50 μl of the appropriate 5 mM para-nitrophenyl substrate made up in buffer at the optimum pH for the enzyme. […] Final absorbances were read at 405 nm using a Versamax microplate reader (Molecular Devices). Assays were carried out in triplicate, and the values given are means of the three replicates per assay.

[2] = system: α-D-glucosidase (Bacillus); test: Glycosidase assay, α-D-glucosidase (Bacillus); assay type: biochemical; details: 0.2 mM
Description: as §1

[3] = system: β-D-glucosidase; test: Glycosidase assay, β-D-glucosidase; assay type: biochemical; details: 0.2 mM
Description: as §1

[4] = system: α-D-galactosidase; test: Glycosidase assay, α-D-galactosidase; assay type: biochemical; details: 0.2 mM; negative value = stabilisation or promotion
Description: as §1

[5] = system: β-D-galactosidase; test: Glycosidase assay, β-D-galactosidase; assay type: biochemical; details: 0.2 mM
Description: as §1

[6] = system: α-D-mannosidase; test: Glycosidase assay, α-D-mannosidase; assay type: biochemical; details: 0.2 mM; for percentage inhibition, α-D-mannosidase: negative value = stabilisation or promotion
Description: as §1

[7] = system: β-D-mannosidase; test: Glycosidase assay, β-D-mannosidase; assay type: biochemical; details: 0.2 mM; negative value = stabilisation or promotion
Description: (§2) Enzymes were assayed at 27° C. in 0.1 M citric acid/0.2M disodium hydrogen phosphate buffers at the optimum pH for the enzyme. The incubation mixture consisted of 10 μl enzyme solution, 10 μl of 1 mg/ml aqueous solution of sample and 50 μl of the appropriate 5 mM para-nitrophenyl substrate made up in buffer at the optimum pH for the enzyme. […] Final absorbances were read at 405 nm using a Versamax microplate reader (Molecular Devices). Assays were carried out in triplicate, and the values given are means of the three replicates per assay.

[8] = system: N-acetyl-β-D-gluc (Bovine kidney); test: Glycosidase assay, N-acetyl-β-D-gluc (Bovine kidney); assay type: biochemical; details: 0.2 mM; negative value = stabilisation or promotion
Description: as §1

[9] = system: N-acetyl-β-D-gluc (Jack bean); test: Glycosidase assay, N-acetyl-β-D-gluc (Jack bean); assay type: biochemical; details: 0.2 mM; negative value = stabilisation or promotion
Description: as §1

[10] = system: glucosidases; test: Glycosidase panel, summary in words for glucosidases; assay type: biochemical; details: 0.2 mM
Description: as §1

[11] = system: equine endometrial explant, Prostaglandin F2α (PGF2α) secretion; test: In vitro equine endometrial explant culture, LPS-stimulated PGF2α secretion; assay type: cell-based, horse
Description: The efficacy of ido-BR1 as an anti-inflammatory agent in a model of mucosal inflammation was tested. The model utilised was previously optimised and established (D M Nash, E A. Lane, S Herath and I M Sheldon (2008) Endometrial Explant Culture for Characterizing Equine Endometritis. American Journal of Reproductive Immunology. 59: 105-117). The model is comprised of an in vitro equine endometrial explant tissue culture system. […]
Uterine tissue was collected from mares at an abattoir, the endometrial (mucosal) surface was dissected out, […] placed in culture as explants. […] The secretion of PGF2α is measured at 24 and 72 h after challenge with LPS in order to represent the innate and chronic immune response respectively.
Explants were treated with control (media alone) or, in order to determine whether ido-BR1 affected spontaneous PGF2α, 0.5, 25 or 100 μg/ml ido-BR1 alone. […] The secretion of PGF2α was measured at 24 and 72 h after treatments were applied. […]

[12] = system: β-glucuronidase; details: 0.2 mM
Description: as §1

[13] = target: T2, α-D-glucosidase (Rice) (Oryza sativa subsp. japonica, UniProt Q653V7); test: Glycosidase assay, α-D-glucosidase (Rice); assay type: biochemical; details: 0.2 mM
T2 construct: purchased Sigma
Description: as §2

[14] = system: α-L-fucosidase; test: Glycosidase assay, α-L-fucosidase; assay type: biochemical; details: 0.2 mM
Description: as §1

[15] = system: Naringinase; test: Glycosidase assay, Naringinase; assay type: biochemical; details: 0.2 mM
Description: as §2

[16] = system: N-acetyl-β-D-hexosaminidase; test: Glycosidase assay, N-acetyl-β-D-hexosaminidase; assay type: biochemical; details: 0.2 mM; negative value = stabilisation or promotion
Description: as §2

[17] = target: T3, Amyloglucosidase (Aspergillus niger, UniProt P69328); test: Glycosidase assay, Amyloglucosidase; assay type: biochemical; details: 0.2 mM
T3 construct: purchased Sigma
T3 sequence (P69328 25-640): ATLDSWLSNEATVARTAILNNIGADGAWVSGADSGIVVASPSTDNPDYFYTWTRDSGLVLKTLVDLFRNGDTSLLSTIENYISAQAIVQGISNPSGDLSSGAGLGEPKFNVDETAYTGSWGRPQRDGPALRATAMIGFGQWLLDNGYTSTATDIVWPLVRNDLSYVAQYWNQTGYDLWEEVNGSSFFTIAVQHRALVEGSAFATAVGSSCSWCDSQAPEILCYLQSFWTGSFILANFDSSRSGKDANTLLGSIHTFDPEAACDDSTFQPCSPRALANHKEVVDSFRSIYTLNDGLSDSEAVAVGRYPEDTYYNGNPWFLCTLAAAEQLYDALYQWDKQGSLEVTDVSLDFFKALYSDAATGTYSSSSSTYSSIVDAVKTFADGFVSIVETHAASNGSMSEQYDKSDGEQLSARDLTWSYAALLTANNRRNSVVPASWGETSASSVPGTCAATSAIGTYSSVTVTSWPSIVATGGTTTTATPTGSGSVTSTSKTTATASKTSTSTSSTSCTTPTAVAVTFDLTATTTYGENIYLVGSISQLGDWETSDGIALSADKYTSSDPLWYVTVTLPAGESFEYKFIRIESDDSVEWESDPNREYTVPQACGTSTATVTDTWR
Description: as §2

T1 sequence (P53341 whole entry): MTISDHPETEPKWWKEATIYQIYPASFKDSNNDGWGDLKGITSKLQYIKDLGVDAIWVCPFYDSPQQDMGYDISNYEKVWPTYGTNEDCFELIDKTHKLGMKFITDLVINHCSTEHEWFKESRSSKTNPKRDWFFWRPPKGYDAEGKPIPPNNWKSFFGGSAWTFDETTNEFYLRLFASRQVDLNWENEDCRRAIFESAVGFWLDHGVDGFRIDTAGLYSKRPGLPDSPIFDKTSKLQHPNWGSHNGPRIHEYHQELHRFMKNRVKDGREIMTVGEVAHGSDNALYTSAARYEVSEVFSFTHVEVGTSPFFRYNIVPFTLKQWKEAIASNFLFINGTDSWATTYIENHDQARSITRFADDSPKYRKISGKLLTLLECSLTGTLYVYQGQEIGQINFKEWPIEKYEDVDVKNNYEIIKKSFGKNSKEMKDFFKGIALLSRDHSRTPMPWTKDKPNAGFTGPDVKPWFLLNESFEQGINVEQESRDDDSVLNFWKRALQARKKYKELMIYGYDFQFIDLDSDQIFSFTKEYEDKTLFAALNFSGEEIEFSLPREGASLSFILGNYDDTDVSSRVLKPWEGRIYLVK
T2 sequence (Q653V7 34-885): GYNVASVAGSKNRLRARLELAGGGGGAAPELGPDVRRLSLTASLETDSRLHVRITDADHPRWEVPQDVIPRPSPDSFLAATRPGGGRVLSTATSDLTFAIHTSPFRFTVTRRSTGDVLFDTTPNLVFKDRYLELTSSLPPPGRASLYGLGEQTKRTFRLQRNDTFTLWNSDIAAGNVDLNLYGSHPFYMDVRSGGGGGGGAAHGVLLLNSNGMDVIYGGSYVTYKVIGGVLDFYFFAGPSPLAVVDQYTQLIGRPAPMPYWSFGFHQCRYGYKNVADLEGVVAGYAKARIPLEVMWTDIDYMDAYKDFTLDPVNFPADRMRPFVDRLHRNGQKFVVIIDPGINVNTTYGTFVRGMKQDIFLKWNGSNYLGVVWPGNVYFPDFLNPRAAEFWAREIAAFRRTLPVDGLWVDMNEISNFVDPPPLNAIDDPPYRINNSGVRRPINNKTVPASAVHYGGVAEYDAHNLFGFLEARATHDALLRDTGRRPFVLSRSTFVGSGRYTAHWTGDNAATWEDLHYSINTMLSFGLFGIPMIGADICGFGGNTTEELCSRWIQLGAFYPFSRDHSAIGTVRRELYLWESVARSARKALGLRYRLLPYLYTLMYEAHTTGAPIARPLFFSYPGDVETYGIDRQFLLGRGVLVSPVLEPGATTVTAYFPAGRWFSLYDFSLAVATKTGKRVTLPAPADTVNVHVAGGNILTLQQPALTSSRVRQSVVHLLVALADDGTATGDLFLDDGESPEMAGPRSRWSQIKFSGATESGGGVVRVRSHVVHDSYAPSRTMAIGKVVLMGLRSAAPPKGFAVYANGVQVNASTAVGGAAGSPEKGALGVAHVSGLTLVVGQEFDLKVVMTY

SMILES | percentage inhibition, α-D-glucosidase (Bacillus) [2] [%] | percentage inhibition, β-D-glucosidase [3] [%] | percentage inhibition, α-D-galactosidase [4] [%] | percentage inhibition, β-D-galactosidase [5] [%] | percentage inhibition, α-D-mannosidase [6] [%] | percentage inhibition, β-D-mannosidase [7] [%] | percentage inhibition, N-acetyl-β-D-gluc (Bovine kidney) [8] [%] | percentage inhibition, N-acetyl-β-D-gluc (Jack bean) [9] [%] | inhibition of glucosidases (in words) [10] | other results
O=C(O)[C@@H]1NC[C@H](O)[C@@H](O)[C@@H]1O [ido-BR1, (2R,3R,4R,5S)-3,4,5-trihydroxypiperidine-2-carboxylic acid] | 26.4 | 6.1 | −2.7 | 1.0 | −28.4 | −4.4 | 5.5 | −4.5 | very weakly inhibitory | inhibition at 200 µM ([1]; read-out: percentage inhibition, α-D-glucosidase (Yeast)): 4.7%; effect on alpha-mannosidase activity (in words) [6]: promote alpha-mannosidase activity slightly; PGF2α secretion by LPS-challenged explants versus control (abrogation of inflammation) ([11]; 3.0 μg/ml LPS with 0.5, 25 or 100 μg/ml ido-BR1, 24 h): not significantly different to the control; also recorded: abrogated inflammation in the explants; abrogation of LPS-stimulated PGF2α secretion ([11]; 3.0 μg/ml LPS with ido-BR1, 72 h): not significant; inhibition of glucuronidase (in words) [12]: not inhibitory; percentage inhibition, β-glucuronidase [12]: 2.5%
OC[C@H]1NC[C@H](O)[C@@H](O)[C@@H]1O [DNJ, reference compound] | 99.5 | 63.7 | −3.3 | 0.4 | 26.6 | −19.0 | −0.8 | 2.8 | potent inhibition | percentage inhibition, α-D-glucosidase (Yeast) [1]: 35.7%; percentage inhibition, α-D-glucosidase (Rice) [13]: 99.6%; percentage inhibition, α-L-fucosidase [14]: 5.9%; percentage inhibition, Naringinase [15]: 20.8%; percentage inhibition, N-acetyl-β-D-hexosaminidase [16]: −5.5%; percentage inhibition, Amyloglucosidase [17]: 31.7%
